Experiment: Solubility of paclitaxel in the hydrophilic liquid core solvents
Conditions: solvents such as DMSO and DENA

concentration at which the drug may be dissolved in liquid core: 10-60 weight percent
Compound: CC(=O)O[C@H]1C(=O)[C@@]2(C)[C@H]([C@H](OC(=O)c3ccccc3)[C@]3(O)C[C@H](OC(=O)[C@H](O)[C@@H](NC(=O)c4ccccc4)c4ccccc4)C(C)=C1C3(C)C)[C@]1(OC(C)=O)CO[C@@H]1C[C@@H]2O [paclitaxel]
